Experimental data as given in ChEMBL document CHEMBL1146963, “Synthesis and biological evaluation of alpha-galactosylceramide (KRN7000) and isoglobotrihexosylceramide (iGb3)” (Bioorg Med Chem Lett, 2006).
The source made the active and inactive calls.

Experiments:
Type in all cases: functional, cell-based
iNKT [1] = test: Release of IL2 from mouse iNKT hybridoma stimulated by bone marrow-derived mouse DC at 0.2 ug/ml
iNKT [2] = test: Release of IL4 and IFN-gamma from human iNKT cells stimulated by C1R cell expressing human CD1d at 20 ug/ml
iNKT [3] = test: Release of IL4 and IFN-gamma from human iNKT cells stimulated by C1R cell expressing human CD1d at 5 ug/ml

Measured: Activity

CCCCCCCCCCCCC/C=C/[C@@H](O)[C@H](CO[C@@H]1O[C@H](CO)[C@@H](O[C@@H]2O[C@H](CO)[C@H](O)[C@H](O[C@H]3O[C@H](CO)[C@H](O)[C@H](O)[C@H]3O)[C@H]2O)[C@H](O)[C@H]1O)NC(=O)CCCCCCCCCCCCCCCCCCCCCCCCC
active: iNKT [1] | iNKT [2] | iNKT [3]
